Patent US20070160491A1, “Method For Determining Lumen Penetration Of A Vapor Phase Sterilant” (priority 2002, published 2007)
“And” between values parts separate entries of the source, which are not always exact repeats. Identical values can stand only once. Like-named read-outs stand apart in the source and are kept apart here.

Assays:
[1] = for rate constant of condensation k^C / rate constant of decomposition k^D: 3 mm stainless steel lumen
Excerpt: k=rate constant for losses in the lumen, sec^−1
The rate of mass input per volume to the lumen 20 by internal processes is a negative term, whenever mass is lost in the lumen 20 by decomposition, absorption, adsorption and condensation. In that case the rate constant k is a negative number.
The rate constant k cannot be measured experimentally inside the lumen 20 without disturbing the internal environment, so a value is assigned for each lumen material, such as stainless steel and polyethylene. The value is adjusted to provide an area scale, which correlates efficacy results from the sterilization cycles, as discussed below.
(§1) An estimate of the area under the concentration-time curve is obtained by summing the one-second concentration values in the injection and diffusion steps of the cycle, as shown in Table 1 for sterilization cycles in a STERRAD® 200 […] sterilizer available from Advanced Sterilization Products division of Ethicon, Inc., Irvine, Calif., with different lumens in the validation load. The area scale for stainless steel (SS) is established by setting the value of the rate constant k equal to 0.46 sec^−1 to give an area of approximately 100 mg−sec/l for the cycles with 3 mm×500 mm stainless steel lumens at 30° C.
(§2) Correcting the rate constant from 0.46 sec^−1 at 30° C. to 1.41 sec^−1 at 5° C. is initiated by writing the rate constant as the sum of the decomposition rate constant k^D and the condensation rate constant k^C. […] For a rate constant 0.46 sec^−1 at 30° C., each individual rate constant of decomposition k^D and condensation k^C is approximately 0.46/2=0.23 sec^−1. […] The rate constant of decomposition k^D at 5° C. is calculated from the rate constant of decomposition k^D at 30° C. and the rate factors for decomposition at 30° C. and 5° C.: k^D at 5° C.=0.23 sec^−1×(1 rate factor at 5° C./7 rate factor at 30° C.)=0.03 sec^−1. […] Finally, the rate constant at 5° C. is calculated as the sum of the rate constants of condensation k^C and of decomposition k^D at 5° C.: k at 5° C.=1.38 sec^−1+0.03 sec^−1=1.41 sec^−1.
The adjustment for diameter is made in Table 1 by correcting the rate constant 0.46 sec^−1 for 3 mm stainless steel lumens to 4.14 sec^−1 for 1 mm lumens with factors for the surface to volume ratio and diffusion radius ratio.
Surface to volume ratio correction factor=(surface/volume)1 mm/(surface/volume)3 mm=(2πrL)1 mm/(2πrL/πr^2L)3 mm=(1/r)1 mm/(1/r)3 mm=[…]=1.5 mm/0.5 mm=3
In addition to correction for surface to volume ratio, correction of the rate constant 0.46 sec^−1 for diffusion radius is necessary, because diffusion to the wall of the smaller lumen is greater than for the larger one. Diffusion radius ratio correction factor=(r)3 mm/(r)1 mm=1.5 mm/0.5 mm=3
The area scale for the second lumen material, polyethylene (PE), in Table 1 is established similarly for a limiting case in the STERRAD® 200 Sterilizer. The rate constant is set at 0.33 sec^−1 for 1 mm×500 mm lumens to give an area of approximately 100 mg−sec/l. […] The rate constant 0.33 sec^−1 for lumens with 1 mm diameter is corrected with factors for the surface to volume ratio and diffusion radius ratio to obtain the rate constant 0.037 sec-^−1 for 3 mm lumens.

[2] = test system: biological indicators (test microorganisms)
Excerpt: However, other process variables are also important, such as chamber and load temperature, size and composition of the load and exposure time. For a fixed load configuration in a particular sterilizer with a qualified sterilization cycle, temperature remains relatively constant during injection, so concentration and exposure time become the most important control variables. Area under a concentration-time curve is a useful index for quantifying cycle performance to compare with efficacy as measured via biological indicators.
as §1

[3] = cited from earlier work
[4] = 30 °C
Experimental: as §2

[5] = cited from earlier work; remark: listed apart in the source
[6] = lumen 0.8 × 100 mm SS, 30 °C, injection time 6.5 min
[7] = lumen 0.8 × 150 mm SS, 30 °C, injection time 6.5 min
[8] = lumen 1 × 125 mm SS, 30 °C, injection time 6.5 min
[9] = lumen 1 × 500 mm PE, 30 °C, injection time 6.5 min
[10] = lumen 1 × 700 mm PE, 30 °C, injection time 6.5 min
[11] = lumen 3 × 400 mm SS, 5 °C, injection time 6.5 min
[12] = lumen 3 × 400 mm SS, 30 °C, injection time 1 min
[13] = lumen 3 × 400 mm SS, 30 °C, injection time 2 min
[14] = lumen 3 × 400 mm SS, 30 °C, injection time 6.5 min
[15] = lumen 3 × 500 mm SS, 30 °C, injection time 6.5 min
[16] = lumen 3 × 1000 mm PE, 30 °C, injection time 6.5 min
[17] = lumen 3 × 1500 mm PE, 30 °C, injection time 6.5 min

OO [hydrogen peroxide]
−k, rate constant for losses in the lumen ([1]; 0.8 mm stainless steel lumens, 30 °C, k3 mm × 3.75 × 3.75): 6.47 s⁻¹
−k, rate constant for losses in the lumen ([1]; 0.8 mm stainless steel lumens, 30 °C, k3 mm × 3.75 × 3.75, listed as H2O2): 6.47 s⁻¹
−k, rate constant for losses in the lumen ([1]; 1 mm polyethylene lumens, 30 °C, k chosen to give 100 mg-sec/l area threshold): 0.33 s⁻¹
−k, rate constant for losses in the lumen ([1]; 1 mm polyethylene lumens, 30 °C, k chosen to give 100 mg-sec/l area threshold, listed as H2O2): 0.33 s⁻¹
−k, rate constant for losses in the lumen ([1]; 1 mm stainless steel lumens, 30 °C, k3 mm × 3 × 3): 4.14 s⁻¹
−k, rate constant for losses in the lumen ([1]; 1 mm stainless steel lumens, 30 °C, k3 mm × 3 × 3, listed as H2O2): 4.14 s⁻¹
−k, rate constant for losses in the lumen ([1]; 1 mm stainless steel lumens, 30 °C, k3 mm × 3 × 3, listed as Hydrogen Peroxide): 4.14 ^d sec^−1
−k, rate constant for losses in the lumen ([1]; 3 mm polyethylene lumens, 30 °C, k1 mm/(3 × 3)): 0.037 s⁻¹
−k, rate constant for losses in the lumen ([1]; 3 mm polyethylene lumens, 30 °C, k1 mm/(3 × 3), listed as H2O2): 0.037 s⁻¹
−k, rate constant for losses in the lumen ([1]; 3 mm polyethylene lumens, 30 °C, k1 mm/(3 × 3), listed as Hydrogen Peroxide): 0.037 ^f sec^−1 and 0.037 sec^−1
rate constant of condensation k^C ([1]; 5 °C): 1.38 s⁻¹
rate constant of decomposition k^D ([1]; 5 °C): 0.03 s⁻¹
rate constant of condensation k^C ([1]; 30 °C): ~0.23 s⁻¹
rate constant of decomposition k^D ([1]; 30 °C): ~0.23 s⁻¹
−k, rate constant for losses in the lumen ([1]; 3 mm stainless steel lumens, 5 °C, calculated from k at 30 °C, vapor pressure data and decomposition rate factor): 1.41 s⁻¹
−k, rate constant for losses in the lumen ([1]; 3 mm stainless steel lumens, 5 °C, calculated from k at 30 °C, vapor pressure data and decomposition rate factor, listed as H2O2): 1.41 s⁻¹
−k, rate constant for losses in the lumen ([1]; 3 mm stainless steel lumens, 5 °C, calculated from k at 30 °C, vapor pressure data and decomposition rate factor, listed as Hydrogen Peroxide): 1.41 ^c sec^−1
−k, rate constant for losses in the lumen ([1]; 3 mm stainless steel lumens, 30 °C, k chosen to give 100 mg-sec/l area threshold): 0.46 s⁻¹
−k, rate constant for losses in the lumen ([1]; 3 mm stainless steel lumens, 30 °C, k chosen to give 100 mg-sec/l area threshold, listed as H2O2): 0.46 s⁻¹
Fraction Positive Biological Indicators [2, 6]: 0/48
Indicator Results Zone [2, 6]: Negative
Fraction Positive Biological Indicators [2, 7]: 2/24
Indicator Results Zone [2, 7]: Positive
Fraction Positive Biological Indicators [2, 8]: 0/36
Indicator Results Zone [2, 8]: Negative
Fraction Positive Biological Indicators [2, 9]: 0/36
Indicator Results Zone [2, 9]: Mixed
Fraction Positive Biological Indicators [2, 10]: 1/12
Indicator Results Zone [2, 10]: Positive
Fraction Positive Biological Indicators [2, 11]: 1/72
Indicator Results Zone [2, 11]: Positive
Fraction Positive Biological Indicators [2, 12]: 4/72
Indicator Results Zone [2, 12]: Mixed
Fraction Positive Biological Indicators [2, 13]: 0/72
Indicator Results Zone [2, 13]: Mixed
Fraction Positive Biological Indicators [2, 14]: 0/72
Indicator Results Zone [2, 14]: Negative
Fraction Positive Biological Indicators [2, 15]: 0/96
Indicator Results Zone [2, 15]: Mixed
Fraction Positive Biological Indicators [2, 16]: 0/36
Indicator Results Zone [2, 16]: Negative
Indicator Results Zone ([2]; lumen 3 × 1500 mm PE, 30 °C, injection time 20, 25, 30 min): Negative
Fraction Positive Biological Indicators [2, 17]: 1/36
Indicator Results Zone [2, 17]: Mixed
Fraction Positive Biological Indicators ([2]; lumen 3 × 1500 mm PE, 30 °C, injection time 20 min): 0/12
Fraction Positive Biological Indicators ([2]; lumen 3 × 1500 mm PE, 30 °C, injection time 25 min): 0/12
Fraction Positive Biological Indicators ([2]; lumen 3 × 1500 mm PE, 30 °C, injection time 30 min): 0/12
Fraction Positive BIs ([2]; lumen 3 × 1500 mm PE, 30 °C, injection times 20, 25, 30 min pooled): 0/36
vapor pressure of hydrogen peroxide ([3]; at 5 °C): 0.46 mm Hg
vapor pressure of hydrogen peroxide ([3]; at 30 °C): 2.77 mm Hg
Rate Factor for Decomposition [4]: 7
Rate Factor for Decomposition ([5]; 5 °C (base case)): 1
Rate Factor for Decomposition ([5]; 5 °C (base case), listed as Hydrogen Peroxide): 1 Base Case
Rate Factor for Decomposition ([5]; 15 °C): 2.2
Rate Factor for Decomposition ([5]; 25 °C): 4.84
Rate Factor for Decomposition ([5]; 35 °C): 10.65
Rate Factor for Decomposition ([5]; 45 °C): 23.4
factor by which the decomposition rate increases ([5]; per each 10 °C rise in temperature): 2.2
